Results reported in patent US20210113586A1, “NEW USE AND METHODS OF MODULATING IMMUNE RESPONSES” (DIAMYD MEDICAL AB, priority 2018, published 2021).

Test system: responder CD4+ T cells
Test: Multiplex PEA of cytokines released into culture medium by responder CD4+ T cells
Format: cell-based, human
Procedure: The proliferation of freshly isolated human PBMCs or CD4^+ T cells was evaluated with MTT (3-(4,5-Dimethylthiazol-2-yl)-2,5-Diphenyltetrazolium Bromide) assay (Ring et al., 2012). Cells were suspended in complete medium (RPMI 1640 supplemented with 2 mM glutamine, 25 mM HEPES, 10% heat inactivated fetal bovine serum, 100 U/ml penicillin, 10 mg/ml streptomycin, 5 mM R-mercaptoethanol) in a concentration 1 million cells per milliliter. The assay was performed in 96-well plates in duplicates or triplicates, where each well was pre-coated with 3 μg/ml anti-CD3 antibody for 3-5 h at 37° C. Each well was loaded with 100,000 cells. Drugs were added to the wells at the relevant concentrations. The plate was incubated for 68 h at 37° C. (95% O2, 5% CO2) and then, a media-soluble tetrazolium dye MTT was added to a final concentration of 1 mM after which the plate was incubated for additional 4 h. The plate was then centrifuged at 2,000 RPM for 10 min to pellet the insoluble purple formazan crystals. The supernatant culture media was collected, stored at −80° C. and used for analysis of cytokines using the multiplex proximity extension assay (PEA). The formazan crystal pellet was dissolved in DMSO and the plate was read within 10 min using a Multiskan MS plate reader (Labsystems) at 550 nm. The optical density value was used as the proliferation index value. Drugs were purchased from Sigma-Aldrich or Tocris (Bristol, UK).
Plasma samples, and culture media samples that were collected from plate wells at the end of the proliferation assay, were analyzed by multiplex PEA with an Olink Inflammation […] panel, targeting 92 proteins related to inflammation (Olink Proteomics, Uppsala, Sweden) as previously described (Edvinsson et al., 2017, Assarsson et al., 2014, Larsson et al., 2015, Larssen et al., 2017). Briefly, 1 μl of sample (plasma samples or cell culture media samples) or negative control was mixed with 3 μl probe solution containing a set of 92 paires DNA-oligonucleotide-conjugated antibodies. Upon recognition of a target protein by a pair of probes, the DNA oligonucletodies on the antibodies are brought in proximity and hybridize to each other, followed by enzymatic DNA polymerization to form a new DNA molecule. The newly formed DNA molecule is then amplified and quantified using a microfluidic real-time qPCR, BioMark™ HD (Fluidigm, South San Francisco, Calif., USA). The generated quantification cycle (Cq) values are normalized against spiked-in controls to convert Cq values to Normalized Protein eXpression (NPX) value on log2 scale. NPX is an arbitrary unit, which is positively correlated to protein concentration. These NPX data were then converted to linear data, using the formula 2^NPX, prior to further statistical analysis. Limit of detection (LOD) for each protein was defined as three standard deviations above the background. Proteins with levels below LOD were excluded from further data analysis.

[1] = GABA 100 nM, responder CD4+ T cells, normalized to control
[2] = GABA 500 nM, responder CD4+ T cells, normalized to control

NCCCC(=O)O [GABA, gamma-aminobutyric acid]
number of cytokines whose release was significantly decreased (100 nM GABA): 27 cytokines | number of cytokines whose release was significantly decreased (500 nM GABA): 25 cytokines | 4E-BP1 in culture medium, % Mean [1]: 67.1% | ADA in culture medium, % Mean [1]: 79.3% | CASP-8 in culture medium, % Mean [1]: 66.3% | CCL19 in culture medium, % Mean [1]: 68.7% | CCL20 in culture medium, % Mean [1]: 61.5% | CSCP1 in culture medium, % Mean [1]: 60.6% | CSF-1 in culture medium, % Mean [1]: 84.2% | CXCL10 in culture medium, % Mean [1]: 62.7% | CXCL11 in culture medium, % Mean [1]: 69.1% | DNER in culture medium, % Mean [1]: 94.6% | Flt3L in culture medium, % Mean [1]: 79.3% | IL-6 in culture medium, % Mean [1]: 71.6% | IL-13 in culture medium, % Mean [1]: 69.9% | IL-18R1 in culture medium, % Mean [1]: 76.1% | IL-24 in culture medium, % Mean [1]: 71.8% | LAP TGF-beta-1 in culture medium, % Mean [1]: 79.6% | LIF in culture medium, % Mean [1]: 66.9% | MCP-1 in culture medium, % Mean [1]: 76.9% | OPG in culture medium, % Mean [1]: 70.5% | OSM in culture medium, % Mean [1]: 76.4% | STAMPB in culture medium, % Mean [1]: 68.6% | TNFRSF9 in culture medium, % Mean [1]: 86.3% | TNFSF14 in culture medium, % Mean [1]: 70.6% | TRAIL in culture medium, % Mean [1]: 75.9% | TRANCE in culture medium, % Mean [1]: 89.3% | μPA in culture medium, % Mean [1]: 78.9% | 4E-BP1 in culture medium, % Mean [2]: 50.6% | CASP-8 in culture medium, % Mean [2]: 61.4% | CCL19 in culture medium, % Mean [2]: 59.9% | CCL20 in culture medium, % Mean [2]: 66.0% | CD40 in culture medium, % Mean [2]: 77.8% | CDCP1 in culture medium, % Mean [2]: 44.3% | CXCL1 in culture medium, % Mean [2]: 72.2% | CXCL5 in culture medium, % Mean [2]: 66.0% | CXCL9 in culture medium, % Mean [2]: 62.2% | CXCL10 in culture medium, % Mean [2]: 60.6% | CXCL11 in culture medium, % Mean [2]: 66.6% | DNER in culture medium, % Mean [2]: 68.6% | IFM-gamma in culture medium, % Mean [2]: 73.2% | IL-5 in culture medium, % Mean [2]: 76.0% | IL-8 in culture medium, % Mean [2]: 81.2% | IL-12B in culture medium, % Mean [2]: 69.4% | IL-13 in culture medium, % Mean [2]: 83.0% | IL-18R1 in culture medium, % Mean [2]: 85.8% | OPG in culture medium, % Mean [2]: 66.4% | SCF in culture medium, % Mean [2]: 61.8% | STAMPB in culture medium, % Mean [2]: 57.8% | TNF in culture medium, % Mean [2]: 47.8% | TNFB in culture medium, % Mean [2]: 69.0% | TNFSF14 in culture medium, % Mean [2]: 60.0% | μPA in culture medium, % Mean [2]: 68.0% | number of cytokines whose secretion was decreased in total (responder group, concentration-dependent (100, 500 nM)): 37 cytokines
